Assay: gradient 5% acetonitrile 3 min, to 50% in 2 min, to 85% in 15 min, held 3 min, 100 µL/min
Details: column: Zorbax Extend-C18 2.1 x 50 mm; eluents: water / acetonitrile, 0.1% formic acid
Summary of the method: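 Retention times of pure standards were taken from adduct peaks that were selected by computer and manually inspected. Over 3 months, mixtures of ~100 molecules were run by HPLC–quadrupole time-of-flight mass spectrometry in positive and negative ionization mode. The Zorbax Extend-C18 column (2.1 × 50 mm, 1.8 μm) ran at 100 μL/min in water and acetonitrile, each containing 0.1% formic acid, with 40 μL dead volume and 900 μL dwell volume.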

Structure (SMILES)	RP-LC retention time [s]
Cc1ncsc1C1N(C2CCN(Cc3cn(C)c4ccccc34)CC2)C(=O)C12CCCC2 (centres undefined)	693
COC(=O)c1ccccc1Nc1c(-c2ccc3c(c2)OCO3)nc2cnccn12	932
CCn1c(=O)c(N2CCCC(C(=O)NCc3cc(Br)ccc3OC)C2)nc2ccccc21 (centres undefined)	1140
Cc1ccccc1CN1C[C@@H]2C(=O)N(CCc3ccccc3)C(=O)[C@@H]2C1	829
COc1cccc(CNC(=O)Cn2c(=O)cc(-c3nc(C)no3)c3ccccc32)c1	806
CCc1cccc(C)c1Nc1c(-c2ccc(OC)cc2)nc2cnccn12	873
CC(C)NC(=O)C1CCN(c2cncnc2N2CCOCC2)CC1	570
CN1CCCc2cc(C(CNC(=O)C(=O)Nc3ccc4c(c3)OCO4)N3CCCC3)ccc21 (centres undefined)	714
O=C(Nc1nc(-c2cccs2)cs1)c1ccc2ncsc2c1	874
COc1ccc(-c2nc3ccccn3c2Nc2ccc3c(c2)OCO3)cc1	633
O=c1c2cnc3nc(-c4ccc(Cl)cc4)nn3c2ccn1CCCO	714
CN1C(=O)Cc2cc(C(=O)N3CCN(c4ccccc4Cl)CC3)ccc21	825
COc1ccc(CNC(=O)C2CCN(c3nccnc3Sc3ccccc3)CC2)c(OC)c1	983
CCn1ccc2cc(S(=O)(=O)N3CCC(C(=O)NCCC(C)N4CCCC4)CC3)ccc21 (centres undefined)	648
COc1ccc(S(=O)(=O)N2CCCC(C(=O)Nc3ccc(Br)cc3)C2)cc1C (centres undefined)	1110
Cc1ccc(CS(=O)(=O)N2CCC(C3CCNC3)CC2)cc1C (centres undefined)	666
COCCN1C(=O)Cc2ccccc2C1C(=O)NCc1ccco1 (centres undefined)	676
CC1CCN(C(=O)CC2Sc3ncccc3N(C)C2=O)CC1 (centres undefined)	726
CN(C)c1ccc(CNC(=O)CCc2c(-c3ccc(Cl)cc3)nc3ccccn23)cc1	588
Cc1ccc(C)c(NC(=O)Cn2nc(N3CCCC(C)C3)c3ccccc3c2=O)c1 (centres undefined)	1160
CCOc1ccc(C(=O)NC2(c3nc(-c4cccnc4)no3)CCCCC2)cc1OCC	998
CCSc1nnc(-c2nn(C)c3c2CN(S(=O)(=O)c2ccc(F)cc2)CC3)n1CC	943
O=C(NCc1ccccc1Cl)C1CCCN(c2nccnc2Sc2ccccc2)C1 (centres undefined)	1070

Structure (SMILES)	RP-LC retention time [s]
CCC(C)NC(=O)c1nc2cc(C)c(C)cc2n(C)c1=O (centres undefined)	798
CN(Cc1ccsc1)C(=O)NC1CCCC1	792
COc1ccc(C(O)CN2CCN(c3ccccn3)CC2)cc1 (centres undefined)	540
Cc1ccccc1CNC(=O)Cn1c(C)cc(-c2nnc(-c3ccccc3)o2)c1C	957
CCN(CC(=O)N1CCC(C(N)=O)CC1)S(=O)(=O)c1ccc(F)cc1	635
Cc1ccc2nc(-c3ccccc3)c(Nc3ccc4c(c3)OCO4)n2c1	717
CCCCN1C(=O)c2ccccc2C(C(=O)NCCC(=O)OC)C12CCCCC2 (centres undefined)	868
Cc1nc(-c2cccc(F)c2)sc1C(=O)NC(C)C	936
COc1ccc(-c2cc(N3CCC(NC(=O)c4ccc(C#N)cc4)C3)n[nH]2)cc1 (centres undefined)	685
COc1ccc(-c2nnc(COc3ccc(NC(=O)c4cccnc4Cl)cc3)o2)cc1	820
COC(=O)C(C)Sc1nc2c(c(=O)n1-c1ccc(OC(F)(F)F)cc1)SCC2 (centres undefined)	949
CC(C)[C@H](NC(=O)OCc1ccccc1)C(=O)N[C@H](C=O)Cc1ccccc1	773
Cc1ncsc1CN1CCC(Oc2ccccc2-c2nc(-c3ccccc3)no2)C1 (centres undefined)	732
O=C(Nc1cccc(F)c1)C1CCN(S(=O)(=O)c2cc(-c3noc(C4CCC4)n3)cs2)CC1	1110
CCc1ccc(NC(=O)Cn2nc(C(=O)N3CCOCC3)c3ccccc32)cc1	822
Cc1cccc(Nc2nc(C(=O)NCCc3cccs3)nc3ccccc23)c1	863
CC1Cc2cc(S(=O)(=O)N3CCN(c4ccccn4)CC3)ccc2N1C(=O)C1CC1 (centres undefined)	668
Cn1c(=O)c2nc(S(=O)(=O)CCC(=O)Nc3ccc(Cl)cc3F)n(C)c2n(C)c1=O	781
CCC(C)NC(=O)Cn1cccc(-c2nc(-c3ccc(Br)cc3)no2)c1=O (centres undefined)	870
Cc1oc(-c2ccc(Cl)cc2)nc1CN1CCCC(C(=O)N2CCN(C(=O)c3ccco3)CC2)C1 (centres undefined)	679
Cn1cc(C(=O)N2CCN(c3ccccn3)CC2)c2cccnc21	566
O=C1NC2(CCN(C(=O)c3cccc(Cl)c3)CC2)N=C1c1ccccc1	832
COCCN1C(=O)c2cccn2CC1CNC(=O)c1sc(C)nc1C (centres undefined)	606

Structure (SMILES)	RP-LC retention time [s]
CC1CCN(Cc2csc(N3CCN(C(=O)c4ccc5c(c4)OCO5)CC3)n2)CC1	632
Cc1ccc(NC(=O)Cn2c(=O)n(-c3ccc(F)cc3)c3ncccc32)c(C)c1	875
CC(C)n1cnc(S(=O)(=O)N2CCC(C(=O)Nc3ccc(Cl)cc3)CC2)c1	824
CCn1cnnc1C1CCN(C(=O)c2sccc2C)CC1	561
Cc1ccc(NC(=O)C2(CCO)CCN(c3ncccn3)C2)cc1 (centres undefined)	630
COc1ccc(NC(=O)N2CCN(c3ccc(=O)n(-c4ccc(C)c(C)c4)n3)CC2)cc1OC	764
COc1ccc(N2CCN(c3nc(C(=O)N4CCN(C(C)C)CC4)cs3)CC2)cc1	627
CCOCCCNC(=O)C1CCN(c2nccnc2Oc2ccccc2C)CC1	841
Cc1cc2nc(CN3CCN(Cc4ccccc4)CC3)c(=O)[nH]c2cc1C	620
CCCCN1CN(c2ccc(C)cc2)c2ncccc2S1(=O)=O	1110
Cc1cc(OCC(O)Cn2c(C3CC3)nc3ccccc32)cc(C)c1Cl (centres undefined)	795
CCCCCNC(=O)c1cn(-c2ccc(NC(C)=O)cn2)cn1	690
CCN1CCc2c(sc(-n3cccc3)c2CNC(=O)Nc2cc(C)ccc2OC)C1	718
COc1ccc(C)cc1S(=O)(=O)N1CCCC(c2nnc(COc3ccccc3)o2)C1 (centres undefined)	891
CCOC(=O)N1CCN(C(=S)Nc2ccc3nc(N4CCN(C)CC4)cc(C)c3c2)CC1	540
Cc1nc(N2CCOCC2)c2c(C(=O)Nc3ccc(Cl)cc3)c(C)oc2n1	883
COc1ccc(NC(=O)Cn2cc(C(=O)N3CCCCC3)c(=O)c3ccc(C)nc32)cc1	713
CCN(CC)CCNC(=O)C1c2ccccc2C(=O)N(C)C1c1cccs1 (centres undefined)	611
CC(C)NC(=O)N1CCCC(c2cccc(C(=O)NCc3ccc(F)cc3F)c2)C1 (centres undefined)	862
CCc1cc(OCC(=O)N2CCN(c3ccccn3)CC2)nc2c1c(C)nn2-c1ccc(C)cc1	790
CCOc1ccc(S(=O)(=O)N2C[C@@H]3C[C@H](NC(=O)c4ccccc4)[C@H]2C3)cc1	900
O=C(CSc1cn(CC(=O)N2CCCCCC2)c2ccccc12)NCC1CCCO1 (centres undefined)	799
CCN(CC)CCNC(=O)c1ccc2c(c1)N(S(C)(=O)=O)CC2	554

Structure (SMILES)	RP-LC retention time [s]
O=C(CCc1c(-c2ccc(Br)cc2)nc2ccccn12)NC1CCCC1	667
Cc1ccc2c(=O)c(C(=O)N3CCCCC3)cn(CC(=O)Nc3ccccc3)c2n1	713
CCOc1cccc(CNc2ncc(C(=O)O)c(C)n2)c1	758
Cn1c(=O)c2nc(SCCC(=O)Nc3cc(F)cc(F)c3)n(C)c2n(C)c1=O	751
CCc1cccc(NC(=O)c2c(C)oc3c2C2=NC(CC)CN2C=N3)c1 (centres undefined)	698
Cc1ccc(NC(=O)C2CCN(S(=O)(=O)c3cc(C(=O)N(C)C)cs3)CC2)cc1F	847
CC(C)(C)NS(=O)(=O)c1cc(-c2nnc(-c3ccccc3)o2)ccc1F	985
CCOC(=O)c1c(C)[nH]c(C(=O)N2CCC(CC(=O)NCc3ccc(OC(C)C)cc3)CC2)c1C	866
COc1cccc(Cn2cccc(S(=O)(=O)N3CCCC3)c2=O)c1	807
CCOCCCNC(=O)C1CCN(c2cc(Oc3cccc(C)c3C)ncn2)CC1	819
O=C(NCc1noc(COc2ccccc2)n1)c1ccc(-c2noc(C3CC3)n2)cc1	940
CC1CCN(c2nc(-c3ccc(C(C)(C)C)cc3)nc3ccccc23)CC1	1070
COc1ccc(NC(=O)C2CCc3nc(N4CCCC4)ncc3C2)c(C)c1 (centres undefined)	698
CN(Cc1cccs1)C(=O)NC(C)(C)C	817
Cc1ccc(CN2CCCC(c3nc(-c4cnccn4)no3)CCNC(=O)CC2)s1 (centres undefined)	603
CC1CCCN(CCCNC(=O)c2nnc(-c3ccc(S(=O)(=O)N4CCCC4)cc3)o2)C1 (centres undefined)	642
Cc1cccc(N2CCN(C(=O)c3cn(-c4cc(N5CCSCC5)ncn4)cn3)CC2)c1	932
COc1cccc(CCC(=O)Nc2ccc3ncnc(N4CCCC4)c3c2)c1	683
CCn1nccc1C(=O)NCCn1c(=O)n(Cc2ccc(F)cc2)c2cccnc21	729
O=C(NC1CC1)c1ccccc1OC1CN(C2CCC2)C1	568

— the METLIN SMRT retention time set (Domingo-Almenara et al. 2019)
